Laboratory results published in US20050239873A1 (priority 1999, published 2005).
Where “and” joins values, the source holds several entries; their conditions need not be identical. Equal entries are not always repeated.

What was measured:
[1] = test system: NCI-H929; test: Propidium iodide exclusion / flow cytometry cytotoxicity; format: cell-based, human; settings: oligomycin 2-10 mg/ml, rotenone 0.5-2.5 mg/ml
Method: (§1) Cell survival was assayed by exclusion of propidium iodide (PI; 10 μg/ml) by unfixed cells. Annexin V-FITC (Pharmingen) or 3, 3′-dihexyloxacarbocyanine iodide (DiOC6(3); Molecular Probes) staining was analyzed together with PI to discriminate early apoptotic cells. Apoptotic cells were also measured as sub-G1 events among ethanol-fixed cells stained with 10 μg/ml PI. All cell samples were analyzed using a benchtop FACSCalibur™ (Becton Dickinson, San Jose, Calif.). Flow data were analyzed using MultiCycle AV software (Phoenix Flow Systems). For intracellular pH measurements, cell pellets were washed once and resuspended in 2 ml of HEPES-buffered medium (no phenol red and no serum). Carboxy-SNARF-1-AM (Molecular Probes, 1 mM stock in DMSO, stored at −20° C.) was added to a final concentration of 10 μM, and the cells were incubated for 30 min at 37° C. Following incubation with SNARF, cells were sedimented and the pellets were held on ice. Immediately before analysis, pellets were resuspended in […] (HBSS; experimental buffer) or high-[K+] buffer containing nigericin (calibration samples).

[2] = test system: U266; test: as above; format: cell-based, human; settings: oligomycin 2-10 mg/ml, rotenone 0.5-2.5 mg/ml
Method: as §1

[3] = test system: RPMI-8226; test: as above; format: cell-based, human; settings: oligomycin 2-10 mg/ml, rotenone 0.5-2.5 mg/ml
Method: as §1

[4] = test system: TABX2S cells (over-expressing Bcl-xL); test: cells; settings: for difference in sensitivity of the two cell lines: TABX2S vs TABX1A
From the text: (§2) Briefly, a DNA fragment encoding the full-length mouse BCl-xL cDNA was isolated from the plasmid PBS.BCL-xL (Tzung et al., Am. J. Path. 150:1985-1995, 1997, incorporated herein by reference in its entirety) by digestion with the restriction endonuclease EcoRI. This EcoRI fragment was cloned into the EcoRI site of the mammalian expression vector pSFFV (Fuhlbrigge et al., Proc. Nat. Acad. Sci. USA 85:5649-5653, 1988) in both sense and antisense orientations, to form expression plasmids pSFFV.Bcl-xL(sense) or pSFFV.Bcl-xL(antisense), respectively. The tumorigenic murine hepatocyte cell line TAMH was transfected by lipofection (Lipofectamine, Life Technologies, Rockville, Md., according to the manufacturer's recommendations) with the plasmids pSFFV.neo (the control), pSFFV.Bcl-xL(sense) or pSFFV.Bcl-xL(antisense). […] Transfectants were selected for the acquisition of neomycin resistance by growing cells in the presence of 750 μg/ml of G418. Bulk transfectants were cloned by limiting dilution and individual clones were screened by immunoblot analysis to determine the level of BCl-xL protein expression as described below.
(§3) Selected transfectants were then tested for whole cell sensitivity to several apoptotic agents. Transfected cells were cultured to reach approximately 80% confluency prior to plating an equal number of cells from selected clones on 12-well tissue culture plates. The transplanted cells were treated with the following apoptotic agents: 5 μM doxorubicin for 48 hours; 5 μM cisplatin for 48 hours; or with 200 U/ml tumor necrosis factor (TNF) plus 1 μg/ml actinomycin D for 18 hours. Cell viability was determined by trypan blue dye exclusion. The percentage of viable cells was calculated by the number of viable cells (treated with a particular apoptogenic agent) divided by the number in the control group (untreated).
TABX2S cells and TABX1A cells were also examined for the effects of various mitochondrial inhibitors. […] Azide was diluted from an aqueous stock solution. […] Controls received an equivalent concentration of diluent. At various time points after drug treatment, cells were trypsinized, and cell viability was determined by trypan blue dye exclusion. The number of viable cells were counted and normalized to control group (i.e., % control=number of viable cells (treated group)/number of viable cells (control group)×100).

[5] = test system: mitochondria with normal levels of Bcl-xL expression; test: JC-1 membrane potential of isolated mitochondria; design: species or system murine
Method: Isolated mitochondria were loaded with JC-1 prior to treatment, and mitochondrial labeling was determined using FACS. […] Antimycin A-treated mitochondria with high levels of Bcl-xL had lower levels of JC-1 staining than parallel samples treated with CCCP. Uncoupled mitochondria still retain a significant Donnan potential because of trapped anionic species and it is likely that antimycin-induced PT and/or swelling of mitochondria led to a further reduction of this residual potential.
As observed for the parent compound, antimycin A3, mitochondria with normal levels of BCl-xL expression were not affected by the 2-methoxy analog.

[6] = biological target: T1, recombinant human Bcl-2ΔC22 (Homo sapiens, UniProt P10415); test: Antimycin A3 fluorescence binding and competition assay
T1 construct: poly-His (N); made in house
T1 sequence (P10415 1-217 limits assumed, stated change not applied): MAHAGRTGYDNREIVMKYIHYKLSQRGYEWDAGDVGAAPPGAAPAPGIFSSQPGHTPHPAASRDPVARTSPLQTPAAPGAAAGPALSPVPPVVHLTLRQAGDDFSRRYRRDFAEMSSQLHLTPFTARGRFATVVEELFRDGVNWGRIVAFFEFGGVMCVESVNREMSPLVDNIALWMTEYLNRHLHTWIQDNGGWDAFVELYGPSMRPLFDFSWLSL
Method: In this assay, 0 to 5 μM antimycin A3 (Sigma Chemical Co., St. Louis, Mo.) was added to a physiological buffer (50 mM Tris-HCl pH 8.0, 0.2 M NaCl, 2 mM EDTA, 0.5% v/v glycerol) containing recombinant Bcl-2 or BCl-xL protein under conditions that permitted antimycin A3 to bind to the BH3-binding domain of Bcl-2 or BCl-xL (22.5° C. on a Hitachi F-2500 fluorescence spectrofluorimeter equipped with a thermostatted cell holder). […] The excitation wavelength was 335 nm, and the maximum emission wavelength for antimycin A3 was 428 nm with a slit width of 10 nm. The samples were mixed in a quartz cuvette and checked for inner filter effect over the concentration range of antimycin A3 used for this study. Blanks containing antimycin A3 at the same concentration as the experimental samples were used as controls in all measurements and necessary background corrections were made.
Recombinant human Bcl-2ΔC22 (a recombinant human Bcl-2 with a delection of 22 amino acid residue membrane anchor sequence from the carboxyl end) and mouse Bcl-xLΔC20 (a recombinant murine BCl-xL with a delection of the 20 amino acid residue membrane anchor sequence from the carboxyl end) fused with poly-His at the N-terminus were chromatographically purified to homogeneity. The concentrations of antimycin A3 and stock solutions of recombinant proteins were quantitated using an extinction coefficient of 7.24/mM/cm at 320 nm and by Bradford assay, respectively. The stoichiometric ratio of antimycin A3 and Bcl-2 producing the maximal change in antimycin A3 fluorescence was determined with incremental addition of antimycin A3 to a 1.98 μM solution of recombinant Bcl-2 in a volume of 2.1 milliliters. […] For peptide displacement experiments, a solution of 2 μM antimycin A3 and 3 μM Bcl-2 was allowed to reach binding equilibrium at 4° C. prior to fluorescence measurements. Native peptide corresponding to the BH3 domain of Bak (72-[…]87 (SEQ ID NO:1)) or a mutant peptide with a single amino acid change (Leu78Ala-BH3) was added to the solution and the fluorescence measurements were repeated. […]

[7] = biological target: T2, Bcl-xL(ΔC) WT (Homo sapiens, UniProt Q07817); test: Pore-forming activity, calcein release from liposomes; format: biochemical
T2 construct: inferred from Ni-NTA purification and the pET22b(+) NdeI/XhoI cloning); made in house; host or cells: Escherichia coli BL21(DE3) carrying pUB520
T2 sequence (Q07817 1-211 limits assumed, stated change not applied): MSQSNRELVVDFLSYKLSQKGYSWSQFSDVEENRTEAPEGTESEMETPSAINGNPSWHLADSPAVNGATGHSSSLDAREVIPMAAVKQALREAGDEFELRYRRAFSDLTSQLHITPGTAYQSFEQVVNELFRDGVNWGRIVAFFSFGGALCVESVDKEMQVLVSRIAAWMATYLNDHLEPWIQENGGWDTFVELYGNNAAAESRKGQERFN
Method: Large unilamellar vesicles composed of 60% dioleoylphophatidylcholine and 40% dioleoylphosphatidylglycerol were prepared by the extrusion method of Mayer et al., supra. Lipid stocks, in chloroform, were mixed and dried under a stream of nitrogen gas. The lipid was resuspended by vortexing for 30 min in a solution of 40 mM calcein (Molecular Probes), 25 mM KCl, and 10 mM KOAc, pH 5.0. After 10 freeze-thaw cycles, the lipid suspension was extruded through two 0.1 μm pore diameter Nucleopore filters. Non-entrapped dye was removed by passage over a Sephadex G10 column (Amersham Biosciences). Lipid concentration was measured using the ammonium ferrothiocyanate method (Stewart, Anal. Biochem. 104:10-14, 1980).
For pore assays, recombinant truncated Bcl-2 family protein or mutant protein (Bcl-xL(ΔC)) (500 nM) was added to large unilamellar vesicles (60 μM lipid concentration) in 100 mM KCl, 10 mM KOAc, pH 5.0, and fluorescence measured (490 nm excitation, 520 nm emission) with a Fluoromax-3 spectrophotometer. Peptides of the BH3 domain were incubated with the BCl-xL(ΔC) 5 min prior to mixing with liposomes. AA1 was added to liposomes 1 min before adding the Bcl-xL(ΔC) protein. Samples for kinetic assays were analyzed in a thermostatted cuvette at 37° C. with constant stirring. Dose responses were measured in black quartz microplates (Hellma) at room temperature. Calcein release was expressed as percentage of maximum release with detergent lysis (0.1% Triton X-100).

[8] = biological target: T3, Bcl-xL(ΔC) (Homo sapiens, UniProt Q07817); test: Displacement of AA bound to Bcl-xL(ΔC); format: binding
T3 construct: made in house; host or cells: Escherichia coli BL21(DE3) carrying pUB520
T3 sequence (Q07817 1-211 limits assumed, stated change not applied): as above
Method: The non-peptide BCl-xL inhibitors, BH3I-1 and BH3I-2, interact with Phe-97 and Ala-142 in the BCl-xL hydrophobic pocket by NMR chemical shift perturbation (Degterev et al., Nat. Cell Biol. 3:173-182, 2001; Lugovskoy et al., J. Amer. Chem. Soc. 124:1234-1240, 2002). It was determined that BH3I-1 competes with AA1 for Bcl-xL(ΔC) binding.

[9] = test system: TAMH.neo cells (control); test: Cell viability by trypan blue dye exclusion; settings: Mus musculus, 48 h, read-out: cells remained viable
From the text: as §2
as §3, with “The transplanted cells were treated with the following apoptotic agents: 5 μM doxorubicin for 48 hours; 5 μM cisplatin for 48 hours; or with 200 U/ml tumor necrosis factor (TNF) plus 1 μg/ml actinomycin D for 18 hours.” left out
(§4) TABX2S cells and TABX1A cells were also examined for the effects of various mitochondrial inhibitors. […] At various time points after drug treatment, cells were trypsinized, and cell viability was determined by trypan blue dye exclusion. The number of viable cells were counted and normalized to control group (i.e., % control=number of viable cells (treated group)/number of viable cells (control group)×100).

[10] = test system: TABX1A cells (under-expressing Bcl-xL); test: Cell viability by trypan blue dye exclusion; settings: Mus musculus, 48 h, read-out: cells remained viable
From the text: as §2
as §3, with “The transplanted cells were treated with the following apoptotic agents: 5 μM doxorubicin for 48 hours; 5 μM cisplatin for 48 hours; or with 200 U/ml tumor necrosis factor (TNF) plus 1 μg/ml actinomycin D for 18 hours.” left out
as §4

[11] = test system: TAMH vector-only control cells; test: Cytotoxicity (Alamar Blue); format: cell-based, murine; settings: 24 h
Method: (§5) TAMH cells were transfected with DNA encoding each of the mutant BCl-xL proteins by lipofection (See Example 1 for method). For analysis of BCl-xL expression, 20 μg of cell protein was separated by 20% SDS-PAGE and transferred to nitrocellulose membranes. Immunodetection of BCl-xL was carried out using rabbit anti-Bcl-xL antibody and Protein A/horseradish peroxidase conjugate, followed by chemiluminescent detection. Cells were grown to about 80% confluence in 96-well plates followed by addition of 100 μl of 2X AA1 or staurosporine (STS) solution in complete medium. STS is a natural product originally isolated from the bacterium Streptomyces and found to be capable of inducing apoptosis in certain cells and which induction of apoptosis could be blocked by the expression of a Bcl-2 family protein. Cell viability was determined spectrophotometrically after 24 h treatment as the ratio of reduced and oxidized Alamar Blue (BIOSOURCE) at 570 nm and 600 nm, respectively. All results were normalized against DMSO controls. LD50 values were calculated by non-linear regression analysis using Prism software (Graphpad).

[12] = test system: TAMH cells over-expressing Bcl-xL A142L; test: Cytotoxicity (Alamar Blue) in Bcl-xL transfectants; format: cell-based, murine; settings: 24 h
Method: as §5

[13] = test system: TAMH cells over-expressing Bcl-xL F97W; test: Cytotoxicity (Alamar Blue) in Bcl-xL transfectants; format: cell-based, murine; settings: 24 h
Method: as §5

[14] = test system: TAMH cells over-expressing Bcl-xL E92L; test: Cytotoxicity (Alamar Blue) in Bcl-xL transfectants; format: cell-based, murine; settings: 24 h
Method: as §5

[15] = test system: TAMH cells over-expressing Bcl-xL WT; test: Cytotoxicity (Alamar Blue) in Bcl-xL transfectants; format: cell-based, murine; settings: 24 h
Method: as §5

[16] = test system: TAMH cells over-expressing Bcl-xL F146L; test: Cytotoxicity (Alamar Blue) in Bcl-xL transfectants; format: cell-based, murine; settings: 24 h
Method: as §5

Structure (SMILES): CC[C@H]1/C=C/C=C/C[C@@H](C)[C@H](O)[C@@](C)(O)C(=O)[C@@H](C)[C@H](O)[C@@H](C)C(=O)[C@@H](C)[C@H](O)[C@@H](C)/C=C/C(=O)O[C@@H]2[C@H](C)[C@H](CC1)O[C@]1(CC[C@H](C)[C@H](C[C@@H](C)O)O1)[C@H]2C [oligomycin]
- cell killing by oxidative phosphorylation inhibitors [1]: killed
- cell killing by oxidative phosphorylation inhibitors [2]: Only NCI-H929 cells were killed
- cell killing by oxidative phosphorylation inhibitors [3]: Only NCI-H929 cells were killed
- difference in sensitivity of the two cell lines [4]: no significant differences

Structure (SMILES): CCCC[C@H]1C(=O)O[C@H](C)[C@H](NC(=O)c2cccc(NC=O)c2O)C(=O)O[C@@H](C)[C@@H]1OC(=O)CC(C)C [antimycin A3, reference compound]
- mitochondrial depolarization (JC-1) [5]: not affected
- increase of intrinsic fluorescence at 428 nm in the presence of Bcl-2 [6]: ≤ 18%

Structure (SMILES): CC(C)C(C(=O)O)N1C(=O)/C(=C\c2ccc(Br)cc2)SC1=S (stereo not shown) [BH3I-1]
- effect on Bcl-xL pore-forming activity [7]: no effect
- Ki [8]: 1.87 ± 0.617 µM

Structure (SMILES): COc1cccc2c1C(=O)c1c(O)c3c(c(O)c1C2=O)C[C@@](O)(C(=O)CO)C[C@@H]3O[C@H]1C[C@H](N)[C@H](O)[C@H](C)O1 [doxorubicin]
- viability at 5 µM [9]: 50%
- viability at 5 µM [10]: 20%
- viability at 5 µM ([4]; Mus musculus, 48 h, read-out: cells remained viable): 88%

Structure (SMILES): CN[C@@H]1C[C@H]2O[C@@](C)([C@@H]1OC)n1c3ccccc3c3c4c(c5c6ccccc6n2c5c31)C(=O)NC4 [STS, staurosporine]
- Cytotoxicity LD50 [11]: 0.11 ± 0.01 µM
- Cytotoxicity LD50 [12]: 0.49 ± 0.11 µM
- Cytotoxicity LD50 [13]: 0.34 ± 0.10 µM
- Cytotoxicity LD50 [14]: 0.52 ± 0.12 µM
- Cytotoxicity LD50 [15]: 0.58 ± 0.1 µM and 0.58 ± 0.14 µM
- Cytotoxicity LD50 [16]: 0.38 ± 0.04 µM

Structure (SMILES): C=C(C)[C@H]1Cc2c(ccc3c2O[C@@H]2COc4cc(OC)c(OC)cc4[C@@H]2C3=O)O1 [rotenone]
- cell killing by oxidative phosphorylation inhibitors [1]: none of the myeloma cell lines were killed
- cell killing by oxidative phosphorylation inhibitors [2]: none of the myeloma cell lines were killed
- cell killing by oxidative phosphorylation inhibitors [3]: none of the myeloma cell lines were killed
- difference in sensitivity of the two cell lines [4]: no significant differences
- time until cell death apparent ([4]; after treatment, TABX2S and TABX1A cells): six to eight
